In US20250360161A1, “CHEMICALLY MODIFIED HEPARIN” (IHP Therapeutics Inc., priority 2022, published 2025):

Assays:
[1] = system: BxPC3 human pancreatic cancer cells; assay: Pancreatic cancer BxPC3 subcutaneous model, tumor volume; type: in vivo, nude mice; conditions: day 70; gemcitabine 100 mg/kg i.p. q3 day; Compounds A, B 5 mg/kg s.c. bid, 10 mg/kg from day 56
Experimental: A study was conducted to evaluate the anti-cancer activity of Compound A and Compound B in a mouse model of pancreatic cancer. Human pancreatic cancer cells, BxPC3, were implanted subcutaneously (1×10^6 cells in 100 μL Matrigel) in 6 week old female nude mice (5 mice per group). Treatment began on day 7 after implantation, with either gemcitabine (100 mg/kg i.p. q3 day), Compound A (5 mg/kg s.c. bid), or Compound B (5 mg/kg s.c. bid). Tumor volume was measured with calipers each week. On day 56 the dose of both Compound A and B were increased to 10 mg/kg s.c. bid. At day 70 animals were sacrificed and tumors resected, fixed, and stored for further testing.

P-selectin = assay: P-selectin-mediated HL-60 cell binding to immobilized P-selectin/Fc chimera; type: cell-based; conditions: HL-60 cells, best-fit values
Experimental: 96 well plates were coated with 10 μg/mL Protein A overnight, then blocked with 2% FBS for 1 hour. 2 μg/mL P-selectin/Fc chimera was bound to the Protein A for 3 hours at 4° C. HL-60 cells (2e5 cells/well, CMFDA labeled) were then layered onto the P-selectin and allowed to bind for 1 hour at room temperature. Wells were treated concurrently with test samples to determine inhibitory binding activity. After 1 hour, unbound cells were washed and bound cells lysed in a 1% Triton-X solution and read on a Fluorimeter at 480/520 nm.

P-sel IC50 (P-selectin) | Compound | reduction of tumor volume [1]
– | Nc1ccn([C@@H]2O[C@H](CO)[C@@H](O)C2(F)F)c(=O)n1 [Gemcitabine, gemcitabine] | approximately 58%
64.72 µg/mL | enoxaparin | –
